Test results published in PubChem BioAssay (NCI).
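Assay format: 96-well plates, 48-hour exposure. Here, GI50 denotes the concentration required for 50% inhibition of growth. TGI denotes the concentration required for complete inhibition of growth.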

Key:
Test in all cases: NCI tumour cell line growth inhibition, 48 h
ACHN renal = tested on: ACHN renal
786-0 renal = tested on: 786-0 renal
HOP-92 NSCLC = tested on: HOP-92 NSCLC
SW-620 colon = tested on: SW-620 colon
HS 578T breast = tested on: HS 578T breast
UACC-62 melanoma = tested on: UACC-62 melanoma
HL-60(TB) leukemia = tested on: HL-60(TB) leukemia
HT29 colon = tested on: HT29 colon
SK-MEL-28 melanoma = tested on: SK-MEL-28 melanoma
NCI-H460 lung = tested on: NCI-H460 lung

Row | SMILES | GI50 (ACHN renal) | TGI (ACHN renal) | GI50 (786-0 renal) | TGI (786-0 renal) | GI50 (HOP-92 NSCLC) | TGI (HOP-92 NSCLC) | GI50 (SW-620 colon) | TGI (SW-620 colon) | GI50 (HS 578T breast) | TGI (HS 578T breast) | GI50 (UACC-62 melanoma) | TGI (UACC-62 melanoma) | GI50 (HL-60(TB) leukemia) | TGI (HL-60(TB) leukemia) | GI50 (HT29 colon) | TGI (HT29 colon) | GI50 (SK-MEL-28 melanoma) | TGI (SK-MEL-28 melanoma) | GI50 (NCI-H460 lung) | TGI (NCI-H460 lung)
1 | CO/N=C(\COc1ccc2c(=O)c3ccccc3oc2c1)c1ccccc1 | 24 µM | 52.7 µM | 25.4 µM | 72.5 µM | 25.7 µM | 64 µM | 55.9 µM | > 100 µM | 30.6 µM | 89.8 µM | 21.6 µM | 49.9 µM | > 100 µM | > 100 µM | 86.5 µM | > 100 µM | > 100 µM | > 100 µM | 38.9 µM | > 100 µM
2 | CCCCCCCCCCCC1=NC(C)(C)CN1C(C)(C)CO | 3.01 µM | 10 µM | 1.93 µM | 3.89 µM | 2.31 µM | 7.49 µM | 1.67 µM | 3.08 µM | 1.45 µM | 3.48 µM | 1.86 µM | 3.54 µM | 1.77 µM | 4.66 µM | 1.92 µM | 4.1 µM | 1.83 µM | 3.41 µM | 1.55 µM | 2.91 µM
3 | C[C@H]1[C@H](C)N1CC(O)Cn1ccnc1[N+](=O)[O-] (stereo partly specified) | – | > 100 µM | – | > 100 µM | – | > 100 µM | – | > 100 µM | – | > 100 µM | – | > 100 µM | – | > 100 µM | – | > 100 µM | – | > 100 µM | – | > 100 µM
4 | Cc1ccc(/C=C(\C#N)c2cc3ccccc3n2C)cc1 | 0.783 µM | > 100 µM | 0.709 µM | > 100 µM | 1.13 µM | > 100 µM | 0.361 µM | > 100 µM | 0.448 µM | > 100 µM | 0.278 µM | > 100 µM | 0.277 µM | 2.56 µM | 0.356 µM | > 100 µM | > 100 µM | > 100 µM | 0.361 µM | > 100 µM
5 | CN1C(=O)c2ccc3ccccc3c2C1=O | – | > 100 µM | – | > 100 µM | – | > 100 µM | – | > 100 µM | – | > 100 µM | – | > 100 µM | – | > 100 µM | – | > 100 µM | – | > 100 µM | – | > 100 µM
6 | COC(=O)c1c2c(c(C)[n+]([O-])c1C)C(=O)C=C(NCc1ccccc1)C2=O | – | – | 2.33 µM | 6.88 µM | 2.17 µM | 4.37 µM | 0.375 µM | 1.54 µM | 2.19 µM | 6.88 µM | 0.286 µM | 1.21 µM | 0.317 µM | 1.19 µM | 0.384 µM | 2.78 µM | 1.63 µM | 3.8 µM | 0.872 µM | 2.73 µM
7 | CN(C)c1ccc(Nc2c3ccccc3nc3ccccc23)cc1 | 0.532 µM | 2.27 µM | 1.29 µM | 3.13 µM | 0.622 µM | 3.84 µM | 0.665 µM | 3.67 µM | 1.65 µM | 9.47 µM | 1.19 µM | 2.98 µM | 0.84 µM | 3.61 µM | 0.53 µM | 2.34 µM | 1.36 µM | 2.84 µM | 0.367 µM | 1.72 µM
8 | CCC(=O)N1C/C(=C/c2ccc(Cl)cc2)C(=O)/C(=C/c2ccc(Cl)cc2)C1 | 0.745 µM | 1.98 µM | 0.332 µM | 1.22 µM | 1.66 µM | 4.18 µM | 0.287 µM | 0.94 µM | 2.06 µM | 6.05 µM | 0.728 µM | 1.94 µM | 1.25 µM | 5.03 µM | 0.248 µM | 0.622 µM | 1.71 µM | 3.33 µM | 1.12 µM | 3.56 µM
9 | O=[N+]([O-])c1cccc(/C=N/NC2=CS(=O)(=O)C=C2)c1 | – | > 100 µM | – | > 100 µM | – | > 100 µM | – | > 100 µM | – | > 100 µM | – | > 100 µM | – | > 100 µM | – | > 100 µM | – | > 100 µM | – | > 100 µM
10 | CCOC(=O)N1C/C(=C\c2ccccc2)C(=O)/C(=C/c2ccccc2)C1 | – | 10.6 µM | – | 9.15 µM | – | 22.4 µM | – | 3.7 µM | – | 15.3 µM | – | 6.51 µM | – | 4.3 µM | – | 4.05 µM | – | 6.69 µM | – | 42.4 µM
11 | COc1ccc2c(c1)nc(NNC(=O)c1cnccn1)c1cccn12 | 0.0906 µM | 1.4 µM | 0.432 µM | 2.18 µM | 0.952 µM | 3.22 µM | 0.403 µM | 9.43 µM | 1.66 µM | 11.1 µM | 0.268 µM | 2.99 µM | 0.257 µM | – | 0.354 µM | – | 0.444 µM | 3.52 µM | 0.125 µM | 4.02 µM
12 | OCCCCC#Cc1ccccc1C#Cc1ccc(O)cc1 | 16.6 µM | 31.2 µM | 19.4 µM | 36.2 µM | 17.4 µM | 36.2 µM | 18.2 µM | 37.1 µM | 26.2 µM | 77.1 µM | 15.7 µM | 29.6 µM | 18.3 µM | 40.5 µM | 9.41 µM | 22.2 µM | 14.2 µM | 27.8 µM | 20.6 µM | 48.6 µM
13 | COC(C)(C)[C@@H](O)[C@H](O)C[C@H](C)C1=C2CC[C@@H]3[C@@]4(C)CC[C@@H](OC(C)=O)C(C)(C)[C@@H]4C[C@@H](OC4OC(COC(C)=O)C(O)C(O)C4O)[C@@]3(C)[C@]2(C)CC1 (stereo partly specified) | 10.4 µM | 22.2 µM | 14.4 µM | 27.5 µM | 13 µM | 25.8 µM | 15.7 µM | 30.1 µM | 11.8 µM | 28.3 µM | 8.79 µM | 21.7 µM | 3.6 µM | 16 µM | 5.08 µM | 16.9 µM | 11.7 µM | 24.2 µM | 9.06 µM | 25.5 µM
14 | Cc1cn2c(/C=C3/C(=O)Nc4c3ccc3ccccc43)c(C(F)(F)F)nc2s1 | 6.24 µM | > 100 µM | 1.49 µM | 39 µM | 5.1 µM | 98.7 µM | 0.965 µM | > 100 µM | 3 µM | 78.7 µM | 0.627 µM | > 100 µM | 0.54 µM | 32.4 µM | 0.396 µM | 14.2 µM | 2.7 µM | > 100 µM | 0.501 µM | 25.3 µM
